From patent US20210100826A1 (UNIVERSITY HOSPITAL CLEVELAND MEDICAL CENTER, priority 2017, published 2021)
Several values for one entry are separate records, joined by “and”; a condition that tells them apart may be missing. Equal entries are not always repeated.

Key:
[1] = system: DMBA/TPA-induced skin papillomas and squamous spindle-cell carcinomas; assay: Mouse two-step DMBA/TPA skin neoplasia model, local co-treatment with BzBzATP; type: in vivo
Method: Experiments were performed to test the hypothesis that activation of the P2X7 receptor could inhibit development of epidermal neoplasia. These experiments utilized the mouse two-step DMBA/TPA skin neoplasia model, which involves tumor initiation by local treatment with DMBA, followed by tumor promotion by local treatment with TPA. Agarwal et al, “Inhibitory effect of 18beta-glycyrrhetinic acid on 12-O-tetradecanoyl phorbol-13-acetate-induced cutaneous oxidative, stress and tumor promotion in mice” Redox Rep 10:151-157 (2005); and Guo et al, “Disruption of EphA2 receptor tyrosine kinase leads to increased susceptibility to carcinogenesis in mouse skin” Cancer Res 66:7050-7058 (2006). Mice had their dorsal skin shaved, and DMBA was applied once by topical application onto the shaved dorsal skin. TPA treatment by topical application onto the shaved dorsal skin was started one week later and continued twice a week for 12 weeks.
Animals were divided into three groups: Control mice (n=15) that had their back shaved and were treated only with the vehicle; DMBA/TPA-treated mice (n=15); and DMBA/TPA-treated mice that were co-treated with BzBzATP twice a week from week −2 (i.e. two weeks prior to DMBA) (n=14). All treatments were applied locally on the shaved dorsal skin. Papilloma development was monitored weekly from week 5 to 12 after the DMBA. Endpoints were percent animals with at least one papilloma; number of papilloma per animal; and mean papilloma size (e.g., millimeters of the largest lesion dimension). None of the animals in the control group had developed papillomas.
To evaluate the effects of BzBzATP, changes in skin lesions in the DMBA/TPA and DMBA/TPA+BzBzATP groups were compared relative to the length of treatment. Since formation of papillomas and cancerous lesions was time-related (i.e., for example, a marked cut-off occurs between weeks 13-14; see, FIG. 4A), data were analyzed separately for weeks 0-12 and weeks 14-28.

[2] = target: T1, P2X7 (Homo sapiens, UniProt Q99572); conditions: stated without test; read-out: EC50 as P2X7 agonist; cited from earlier work
T1 sequence (Q99572 1-595): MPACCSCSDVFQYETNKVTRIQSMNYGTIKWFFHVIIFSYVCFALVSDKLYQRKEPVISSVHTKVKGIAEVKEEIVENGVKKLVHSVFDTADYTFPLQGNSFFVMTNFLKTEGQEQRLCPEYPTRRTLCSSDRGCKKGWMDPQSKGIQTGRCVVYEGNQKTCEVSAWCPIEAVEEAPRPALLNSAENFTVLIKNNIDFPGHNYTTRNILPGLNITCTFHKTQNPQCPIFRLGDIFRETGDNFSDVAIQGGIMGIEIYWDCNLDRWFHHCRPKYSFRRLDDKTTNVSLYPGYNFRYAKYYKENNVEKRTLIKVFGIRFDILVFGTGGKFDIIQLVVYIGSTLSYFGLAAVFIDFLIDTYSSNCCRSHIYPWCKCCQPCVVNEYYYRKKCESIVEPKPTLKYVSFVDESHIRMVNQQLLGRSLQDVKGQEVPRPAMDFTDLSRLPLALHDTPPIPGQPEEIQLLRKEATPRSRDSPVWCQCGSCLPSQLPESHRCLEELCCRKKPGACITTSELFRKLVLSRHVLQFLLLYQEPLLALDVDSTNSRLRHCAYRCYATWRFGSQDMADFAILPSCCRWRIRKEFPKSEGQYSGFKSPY

[3] = UV radical generation activity; type: physicochemical
[4] = target: T2, cloned P2X7 ATP-activated channel (human P2RX7 gene expressed in HEK293 cells) (Homo sapiens, UniProt Q99572); assay: Electrochemical patch clamp assay of P2X7 receptor activation (agonist mode, QPatch HT); type: cell-based; conditions: for Individual Data Points (% Activation): single cells; for EC50: whole-cell patch clamp, holding voltage −80 mV, room temperature; for decrease in EC50 when compared to BzBz-ATP / decrease in EC50 when compared to native ATP: ratio of EC50 values
T2 construct: HEK293 cells were stably transfected with the appropriate ion channel cDNA encoding the pore-forming channel subunit; expressed in transfected cells
T2 sequence (Q99572 1-595): T1 sequence (Q99572 1-595)

[5] = week 10, DMBA/TPA+BzBzATP group
[6] = week 12, DMBA/TPA+BzBzATP group
[7] = week 28, DMBA/TPA+BzBzATP group

Row | Mean % P2X7 Activation ([4]; Conc 1 μM) [%] | Individual Data Points (% Activation) ([4]; Conc 1 μM) | Mean % P2X7 Activation ([4]; Conc 10 μM) [%] | Individual Data Points (% Activation) ([4]; Conc 10 μM) | Mean % P2X7 Activation ([4]; Conc 100 μM) [%] | Individual Data Points (% Activation) ([4]; Conc 100 μM) | Mean % P2X7 Activation ([4]; Conc 500 μM) [%] | Individual Data Points (% Activation) ([4]; Conc 500 μM) | EC50 [4] [µM] | decrease in EC50 when compared to BzBz-ATP [4] [%] | decrease in EC50 when compared to native ATP [4] [%] | Compound | EC50 [2] [µM] | UV radical generation activity [3] | also measured
1 | 0.0 | 0.1% and 0.0% and −0.2% | 6.7 | 2.2% and 14.9% and 2.9% | 16.9 | 7.2% and 29.6% and 13.8% | 100.0 | 100.0% | 218 | – | – | 2′,3′-0-(4-benzoylbenzoyl)-adenosine 5′-triphosphate [BzBzATP, reference compound] | ~50 | high degree of UV radical generation activity | TUNEL staining of papilloma tissue ([1]; biopsy at week 10, basal/parabasal regions): intense TUNEL staining; decrease of the mean number of papillomas per animal ([1]; versus DMBA/TPA group): about 25%; decrease of the mean papilloma size ([1]; versus DMBA/TPA group): about 45%; proportion of living animals with cancerous lesions >200 mm^3 ([1]; versus DMBA/TPA group): differences did not reach statistical significance; proportion of living animals having a papilloma ([1]; week 5, DMBA/TPA+BzBzATP group): 48±12%; animals having at least one papilloma ([1]; week 6, DMBA/TPA+BzBzATP group): 53.8%; papillomas per animal (mean±SEM) [1, 5]: 1.23±0.34; papillomas per living animal (mean±SD) [1, 5]: 1.2±0.4; mean papilloma size per animal (mean±SEM) [1, 6]: 3.46±0.73 mm; mean total papillomas size per animal (mean±SD) [1, 6]: 3.4±1.0 mm; animals that developed at least one skin papilloma ([1]; week 12, DMBA/TPA+BzBzATP group, local on dorsal skin twice a week): 78%; proportion of living animals with cancerous lesions [1, 7]: 43±9%; proportion of living animals with cancerous lesions >10 mm^3 [1, 7]: 16±4%; P2X7 receptor activation efficacy, comparison in words [4]: slight improvement of receptor activation efficacy; Individual Data Points (% Activation) ([4]; Conc 200 μM): 34.8% and 41.8% and 39.4%
2 | 12.3 | 7.0% and 45.4% and 6.7% and −9.7% | 74.7 | 36.6% and 167.5% and 39.7% and 54.9% | 186.3 | 85.6% and 284.3% and 136.9% and 238.4% | 320.8 | 346.4% and 357.0% and 209.5% and 370.2% | 49.1 | ~445 | ~738 | Nc1ncnc2c1ncn2[C@@H]1O[C@H](COP(=O)(O)OP(=O)(O)OP(=O)(O)O)[C@@H](OC(=O)c2cccc(Oc3ccccc3)c2)[C@H]1O [ATP-(3-phenoxy)benzoyl, 3-phenoxybenzoyl-ATP] | – | – | –
3 | 8.1 | −2.1% and 26.6% and −0.3% | 29.9 | 45.1% and 18.1% and 26.4% | 42.0 | 38.7% and 64.8% and 22.6% | 96.9 | 98.3% and 124.6% and 67.7% | 62.4 | ~350 | ~580 | CCCCCCCCCCCC(=O)O[C@H]1[C@@H](O)[C@H](n2cnc3c(N)ncnc32)O[C@@H]1COP(=O)(O)OP(=O)(O)OP(=O)(O)O [ATP-lauroyl, lauroyl-ATP] | – | low or no UV radical generation activity | EC50 ([4]; listed as lauroyl-ATP): ~62 µM; dissolution in a solution with 0.3% DMSO: not totally dissolved
4 | – | – | – | – | – | – | – | – | 363 | – | – | Nc1ncnc2c1ncn2[C@@H]1O[C@H](COP(=O)(O)OP(=O)(O)OP(=O)(O)O)[C@@H](O)[C@H]1O [NaATP, adenosine triphosphate, reference compound] | ~100 | – | Mean % P2X7 Activation ([4]; Conc 300 μM): 40.9%; Mean % P2X7 Activation ([4]; Conc 750 μM): 75.4%
5 | – | – | – | – | – | – | – | – | – | – | – | Nc1ncnc2c1ncn2[C@@H]1O[C@H](COP(=O)(O)OP(=O)(O)OP(=O)(O)O)[C@@H](OC(=O)/C=C/c2ccccc2)[C@H]1O [cinnamoyl-ATP] | – | low or no UV radical generation activity | –

Row | Compound | Mean % P2X7 Activation ([4]; Conc 1 μM) [%] | Individual Data Points (% Activation) ([4]; Conc 1 μM) | Mean % P2X7 Activation ([4]; Conc 10 μM) [%] | Individual Data Points (% Activation) ([4]; Conc 10 μM) | Mean % P2X7 Activation ([4]; Conc 100 μM) [%] | Individual Data Points (% Activation) ([4]; Conc 100 μM) | Mean % P2X7 Activation ([4]; Conc 500 μM) [%] | Individual Data Points (% Activation) ([4]; Conc 500 μM) | EC50 [4] [µM] | decrease in EC50 when compared to BzBz-ATP [4] [%] | decrease in EC50 when compared to native ATP [4] [%] | EC50 [2] [µM] | UV radical generation activity [3] | also measured
6 | Nc1ncnc2c1ncn2[C@@H]1O[C@H](COP(=O)(O)OP(=O)(O)OP(=O)(O)O)[C@@H](OC(=O)c2ccccc2)[C@H]1O [3′-O-(Benzoyl) Adenosine-5-Triphosphate, 3′-O-(benzoyl)-adenosine-5-triphosphate] | 8.3 | 15.8% and 9.7% and −0.7% | 43.0 | 65.4% and 42.3% and 21.3% | 94.5 | 102.5% and 82.3% and 98.7% | 129.2 | 148.4% and 129.1% and 110.2% | 24 | ~910 | ~1511 | – | low or no UV radical generation activity | –
